Measured values taken from patent US7923440B2, “Method of treating or preventing immune mediated disorders and pharmaceutical formulation for use therein” (Pantarhei Bioscience B.V., priority 2002, dated 2011).

What was measured:
[1] = test system: castrated mice with experimental autoimmune encephalomyelitis (EAE); conditions: amount inducing serum levels of late stage pregnancy, Jansson et al. 1998; cited from earlier work
[2] = test system: AP-1 site in the presence of ERβ; conditions: in the presence of / through ERβ, Paech et al. 1997; cited from earlier work
[3] = test system: AP-1 site in the presence of ERα; conditions: Paech et al. 1997; cited from earlier work
[4] = test system: male DBA/1 mice with collagen induced arthritis (CIA); assay: Collagen induced arthritis (CIA) in male DBA/1 mice, oral treatment; format: in vivo, mouse; conditions: 1 mg/kg
Method: The ability of estetrol to alleviate the severity of immune mediated disorders and its possible side-effects were evaluated and compared with dexamethasone in mice developing collagen induced arthritis (CIA), which is another experimental system of autoimmune and chronic inflammatory disease, representing human arthritic diseases, particularly rheumatoid arthritis (RA).
Arthritis was induced in male DBA/1 mice using a two-step immunization protocol (Joosten et al., “Dual role of IL-12 in early and late stages of murine collagen type II arthritis”. J Immunol 1997; 159:4094-4102; Joosten et al., “IL-1β blockade prevents cartilage and bone destruction in murine type II collagen-induced arthritis, whereas TNFα blockade only ameliorates joint inflammation”. J Immunol 1999; 163:5049-55). This strain is highly susceptible to CIA induced with bovine type II collagen. On day 0, mice were immunized with bovine type II collagen (100 μg) emulsified in Freund's complete adjuvant (four subcutaneous injections in the back). On day 21, mice were boosted with an i.p. injection of 100 μg collagen type II diluted in PBS.
The effect of oral treatment with estetrol on collagen-induced arthritis was studied in a 6-week study design. From day 22 until the end of the study (day 42), the animals were treated once daily with vehicle (hydroxypropyl-beta-cyclodextrin in a 20% wt/vol solution in water) serving as negative control or four different dosages of estetrol (3 mg/kg, 1 mg/kg, 0.3 mg/kg and 0.1 mg/kg). Dexamethasone (1 mg/kg), was chosen as a positive control because it is a well studied corticosteroid that reduces swelling and inflammation and is used in a variety of disorders such as skin diseases (psoriasis, hives), allergic conditions, breathing problems, cancer, blood disorders (anemia), digestive problems, eye disorders and for the treatment of arthritis. Although effective as an anti-inflammatory agent, dexamethasone is also known to induce a number of side effects, which amongst others include in humans the induction of osteoporosis, reduced adrenal function, dizziness, nausea, indigestion, increased appetite, weight gain due to enhanced water retention, weakness and/or sleep disturbances. In addition, systemic dexamethasone treatment in rodents results in strong catabolic effects that can be easily observed as weight loss (Orzechowski et al. 2002, “Rats with a glucocorticoid-induced catabolic state show symptoms of oxidative stress and spleen atrophy: the effects of age and recovery”. J Vet Med A Physiol Pathol Clin Med; 49:256-63).
All groups used in the study consisted of 13 mice. During the study animals were weighed and monitored for clinical signs of arthritis. Scoring of disease severity (clinical arthritis score) was performed according to scoring system described by Joosten et al. 1997 (J. Immunol., 159:4094-4102) and Joosten et al. 1999 (J. Immunol., 163:5049-55).
Basic statistical analyses were performed as follows: The significance of differences between all treatment groups in the main clinical outcome parameters was tested using analysis of variance (ANOVA). Each significant ANOVA was followed by post hoc Tukey tests to determine the significance of the difference between each treatment group and the control group. Furthermore, linear regression analysis was used to study the dose-dependency of the effects of treatment with estetrol. All statistical analysis were performed using statistical software program SPSS 10.0 for Windows (SPSS Inc., Chicago, Ill., USA).

[5] = biological target: T1, human sex Hormone Binding Globulin (SHBG) (Homo sapiens, UniProt P04278); assay: Competitive steroid-binding assay for SHBG; conditions: comparison among tested steroids; order ethinylestradiol, 17β-estradiol, testosterone, 5α-dihydrotestosterone
T1 construct: made in house; host or cells: transgenic mouse (serum)
T1 sequence (P04278 30-402): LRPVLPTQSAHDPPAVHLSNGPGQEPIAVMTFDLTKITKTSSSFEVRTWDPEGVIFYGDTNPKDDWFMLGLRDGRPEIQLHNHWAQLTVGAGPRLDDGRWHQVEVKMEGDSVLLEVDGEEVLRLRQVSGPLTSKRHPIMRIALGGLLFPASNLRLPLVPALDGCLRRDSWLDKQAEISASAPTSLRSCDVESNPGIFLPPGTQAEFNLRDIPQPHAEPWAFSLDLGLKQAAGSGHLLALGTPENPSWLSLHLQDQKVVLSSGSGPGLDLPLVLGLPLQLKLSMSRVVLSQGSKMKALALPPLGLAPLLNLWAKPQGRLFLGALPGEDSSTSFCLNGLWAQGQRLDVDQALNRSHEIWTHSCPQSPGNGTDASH
Method: Human SHBG was treated for 30 min at room temperature with a dextran-coated charcoal (DCC) suspension in phosphate buffered saline (PBS) to remove any steroid ligand. After centrifugation (2,000×g for 10 min) to sediment the DCC, the supernatant containing the human SHBG was diluted in PBS to a concentration of 1 nM based on its steroid binding capacity.
The average amounts of [^3H]labeled ligands bound to SHBG at each concentration of competitor (B) were expressed as a percentage of the average amounts of [^3H]labeled ligands bound to SHBG in the absence of competitor (B0), and were plotted against the concentration of competitor in each assay tube.

[6] = elimination from the blood; cited from earlier work

C[C@]12CC[C@@H]3c4ccc(O)cc4CC[C@H]3[C@@H]1C[C@@H](O)[C@@H]2O [estriol]
onset of experimental autoimmune encephalomyelitis (EAE) [1]: delays the onset

CC/C(=C(\c1ccccc1)c1ccc(OCCN(C)C)cc1)c1ccccc1 [tamoxifen]
effect on AP-1 site [2]: stimulate
effect on AP-1 site [3]: inhibit

O=C(c1ccc(OCCN2CCCCC2)cc1)c1c(-c2ccc(O)cc2)sc2cc(O)ccc12 [raloxifene]
effect on AP-1 site [2]: stimulate
effect on AP-1 site [3]: inhibit

C[C@@H]1C[C@H]2[C@@H]3CCC4=CC(=O)C=C[C@]4(C)[C@@]3(F)[C@@H](O)C[C@]2(C)[C@@]1(O)C(=O)CO [dexamethasone, reference compound]
average cumulative arthritis score ([4]; day 21 to 42, vehicle 31.4±1.73): 0
body weight, % of initial weight (day 21) ([4]; day 28): 91.5%
body weight, % of initial weight (day 21) ([4]; day 35): 91.4%
body weight, % of initial weight (day 21) ([4]; day 42): 94.0%
macroscopic arthritis score ([4]; until day 42, vehicle 5.90±0.38 on day 42): 0
disease incidence (arthritis) ([4]; up to day 42): 0%

C[C@]12CCC(=O)C[C@@H]1CC[C@@H]1[C@@H]2CC[C@]2(C)[C@@H](O)CC[C@@H]12 [5α-dihydrotestosterone, reference compound]
relative binding affinity for human SHBG [5]: in this order, show an increased relative binding affinity for human SHBG

C[C@]12CC[C@H]3[C@@H](CCC4=CC(=O)CC[C@@]43C)[C@@H]1CC[C@@H]2O [testosterone, reference compound]
relative binding affinity for human SHBG [5]: in this order, show an increased relative binding affinity for human SHBG

C[C@]12CC[C@@H]3c4ccc(O)cc4C[C@@H](CCCCCCCCC[S+]([O-])CCCC(F)(F)C(F)(F)F)[C@H]3[C@@H]1CC[C@@H]2O (stereo partly shown) [ICI-182,780]
effect on AP-1 site [2]: stimulate
effect on AP-1 site [3]: inhibit

C[C@]12CC[C@@H]3c4ccc(O)cc4CC[C@H]3[C@@H]1CC[C@@H]2O [E2, 17β-estradiol]
effect on AP-1 site [2]: inhibits
onset of experimental autoimmune encephalomyelitis (EAE) [1]: delays the onset
effect on AP-1 site [3]: activates
half-life [6]: around 1 hour
